Measurements published in patent US20260355325A1, “DIMER COMPOUNDS” (KESMALEA THERAPEUTICS LIMITED, priority 2023, published 2026).

Biological target: T1, BTK (Homo sapiens, UniProt Q06187)
T1 construct: immunofluorescence degradation readout, 48 h
Experiment: BTK IFA Assay (BTK degradation in OCI-Ly10 cells)
Assay type: cell-based
Details: BTK degradation in OCI-Ly10 cells at 48-hour timepoint
Protocol: The purpose of the BTK Assays were to assess the binding affinity of the dimer to BTK and subsequent protein degradation.
OCI-Ly10 cells were obtained from CoBioer Biosciences Co. Ltd, Shanghai, China, and maintained in IMDM (Invitrogen™, Waltham, MA) supplemented with 20% FBS (AusGeneX, Molendinar, Australia) and 1%, penicillin/streptomycin (Invitrogen™, Waltham, MA) in a humidified incubator at 5% CO2, 37° C.
Compounds were dissolved in DMSO (10 mM), serially diluted from 10 mM to 1.5 nM, and pre-incubated for 2 hours. Exponentially growing cells were seeded at 8×10^3 cells per well of 384 well plate (Corning, New York #356663). Cells were treated with compound for 48 hours. Following treatment, cells were fixed with 4% PFA (SolarBio Lifescience, Beijing, China) for 20 minutes, permeabilised in 100% ice-cold methanol (Merck, Darmstadt, Germany) for 10 minutes, and blocked with blocking buffer (LI-COR Biosciences Lincoln, NE) for 90 minutes.
Cells were incubated with primary BTK antibody (CST #8547 Danvers, MA) at 1:1000 dilution overnight in blocking buffer (LI-COR, Lincoln, NE) at 4° C. Cells were washed in DPBS (Thermo Fisher Scientific, Waltham, MA) and incubated with secondary antibody AlexaFluor 488 goat anti rabbit (Invitrogen™ #A-11008 Waltham, MA) 1:1000 dilution, with Hoechst stain (Invitrogen™ Waltham, MA) 1:5000 dilution in blocking buffer (LI-COR Biosciences, Lincoln, NE) for 90 minutes. After final DPBS wash, 200 ul of DPBS was added to the cells, and signal read on Operetta (Revvity, Waltham, MA). Each data point was performed in duplicate for every experiment. A DC50 value was calculated from linear regression analysis of the plots.

T1 sequence (Q06187 whole entry): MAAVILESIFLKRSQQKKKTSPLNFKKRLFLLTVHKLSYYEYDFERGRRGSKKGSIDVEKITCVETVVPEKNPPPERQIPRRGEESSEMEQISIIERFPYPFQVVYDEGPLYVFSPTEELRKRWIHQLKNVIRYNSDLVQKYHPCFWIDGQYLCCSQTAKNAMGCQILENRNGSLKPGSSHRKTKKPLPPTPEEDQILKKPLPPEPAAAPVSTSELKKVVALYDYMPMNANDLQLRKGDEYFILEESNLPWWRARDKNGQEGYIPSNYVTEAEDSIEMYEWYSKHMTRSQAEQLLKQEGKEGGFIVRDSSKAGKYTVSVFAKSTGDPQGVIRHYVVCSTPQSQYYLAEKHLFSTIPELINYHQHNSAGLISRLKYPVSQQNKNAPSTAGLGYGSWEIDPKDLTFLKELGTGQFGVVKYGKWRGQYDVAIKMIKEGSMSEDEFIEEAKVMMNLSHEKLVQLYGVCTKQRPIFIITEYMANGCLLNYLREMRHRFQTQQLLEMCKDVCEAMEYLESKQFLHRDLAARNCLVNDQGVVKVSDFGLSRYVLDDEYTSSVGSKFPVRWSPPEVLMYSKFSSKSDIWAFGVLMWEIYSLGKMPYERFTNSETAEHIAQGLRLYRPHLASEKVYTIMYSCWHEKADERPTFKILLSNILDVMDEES

| SMILES | DC50 [nM] |
| --- | --- |
| Cc1cc(C(=O)NCCC#Cc2cccc3c2CN(C2CCC(=O)NC2=O)C3=O)ccc1B1O[C@H]2C[C@H]3C[C@H](C3(C)C)[C@@]2(CCOCCN2CCC(n3nc(-c4ccc(Oc5ccccc5)cc4)c4c(N)ncnc43)CC2)O1 (mixture of isomers) [Example 15, 4-((3aR,4R,6R,7aS)-3a-(2-(2-(4-(4-amino-3-(4-phenoxyphenyl)-1H-pyrazolo[3,4-d]pyrimidin-1-yl)piperidin-1-yl)ethoxy)ethyl)-5,5-dimethylhexahydro-4,6-methanobenzo[d][1,3,2]dioxaborol-2-yl)-N-(4-(2-(2,6-dioxopiperidin-3-yl)-1-oxoisoindolin-4-yl)but-3-yn-1-yl)-3-methylbenzamide] | 100 to 500 |
| Cc1cc(C(=O)N(C)CCCOc2ccc3c(c2)n(C)c(=O)n3C2CCC(=O)NC2=O)ccc1B1O[C@H]2C[C@H]3C[C@H](C3(C)C)[C@@]2(CCOCC(=O)N2CCC(n3nc(-c4ccc(Oc5ccccc5)cc4)c4c(N)ncnc43)CC2)O1 (mixture of isomers) [Example 16, 4-((3aR,4R,6R,7aS)-3a-(2-(2-(4-(4-amino-3-(4-phenoxyphenyl)-1H-pyrazolo[3,4-d]pyrimidin-1-yl)piperidin-1-yl)-2-oxoethoxy)ethyl)-5,5-dimethylhexahydro-4,6-methanobenzo[d][1,3,2]dioxaborol-2-yl)-N-(3-((1-(2,6-dioxopiperidin-3-yl)-3-methyl-2-oxo-2,3-dihydro-1H-benzo[d]imidazol-5-yl)oxy)propyl)-N,3-dimethylbenzamide] | 500 to 1000 |
| Cc1cc(C(=O)NCCC#Cc2cccc3c2CN(C2CCC(=O)NC2=O)C3=O)ccc1B1O[C@H]2C[C@H]3C[C@H](C3(C)C)[C@@]2(CCOCC(=O)N2CCC(n3nc(-c4ccc(Oc5ccccc5)cc4)c4c(N)ncnc43)CC2)O1 (mixture of isomers) [Example 17, 4-((3aR,4R,6R,7aS)-3a-(2-(2-(4-(4-amino-3-(4-phenoxyphenyl)-1H-pyrazolo[3,4-d]pyrimidin-1-yl)piperidin-1-yl)-2-oxoethoxy)ethyl)-5,5-dimethylhexahydro-4,6-methanobenzo[d][1,3,2]dioxaborol-2-yl)-N-(4-(2-(2,6-dioxopiperidin-3-yl)-1-oxoisoindolin-4-yl)but-3-yn-1-yl)-3-methylbenzamide] | 100 to 500 |
| Cc1cc(C(=O)N(C)CCCOc2ccc3c(c2)n(C)c(=O)n3C2CCC(=O)NC2=O)ccc1B1O[C@H]2C[C@H]3C[C@H](C3(C)C)[C@@]2(CCOCCN2CCC(n3nc(-c4ccc(Oc5ccccc5)cc4)c4c(N)ncnc43)CC2)O1 (stereo partly drawn) [Example 14, 4-((3aR,4R,6R,7aS)-3a-(2-(2-(4-(4-amino-3-(4-phenoxyphenyl)-1H-pyrazolo[3,4-d]pyrimidin-1-yl)piperidin-1-yl)ethoxy)ethyl)-5,5-dimethylhexahydro-4,6-methanobenzo[d][1,3,2]dioxaborol-2-yl)-N-(3-((1-(2,6-dioxopiperidin-3-yl)-3-methyl-2-oxo-2,3-dihydro-1H-benzo[d]imidazol-5-yl)oxy)propyl)-N,3-dimethylbenzamide] | 100 to 500 |

Second part, the compound after the results:

| DC50 [nM] | SMILES |
| --- | --- |
| 500 to 1000 | Cc1ccc(C(=O)N(C)CCCOc2cccc3c2CN(C2CCC(=O)NC2=O)C3=O)cc1B1O[C@H]2C[C@H]3C[C@H](C3(C)C)[C@@]2(CCOCC(=O)N2CCC(n3nc(-c4ccc(Oc5ccccc5)cc4)c4c(N)ncnc43)CC2)O1 (mixture of isomers) [Example 19, 3-((3aR,4R,6R,7aS)-3a-(2-(2-(4-(4-amino-3-(4-phenoxyphenyl)-1H-pyrazolo[3,4-d]pyrimidin-1-yl)piperidin-1-yl)-2-oxoethoxy)ethyl)-5,5-dimethylhexahydro-4,6-methanobenzo[d][1,3,2]dioxaborol-2-yl)-N-(3-((2-(2,6-dioxopiperidin-3-yl)-1-oxoisoindolin-4-yl)oxy)propyl)-N,4-dimethylbenzamide] |
| 1000 to 10000 | Cc1cc(C(=O)N(C)CCOc2cccc3c2CN(C2CCC(=O)NC2=O)C3=O)ccc1B1O[C@H]2C[C@H]3C[C@H](C3(C)C)[C@@]2(CCOCC(=O)N2CCC(n3nc(-c4ccc(Oc5ccccc5)cc4)c4c(N)ncnc43)CC2)O1 (mixture of isomers) [Example 20, 4-((3aR,4R,6R,7aS)-3a-(2-(2-(4-(4-amino-3-(4-phenoxyphenyl)-1H-pyrazolo[3,4-d]pyrimidin-1-yl)piperidin-1-yl)-2-oxoethoxy)ethyl)-5,5-dimethylhexahydro-4,6-methanobenzo[d][1,3,2]dioxaborol-2-yl)-N-(2-((2-(2,6-dioxopiperidin-3-yl)-1-oxoisoindolin-4-yl)oxy)ethyl)-N,3-dimethylbenzamide] |
| 500 to 1000 | Cc1cc(C(=O)N(C)CCCOc2cccc3c2CN(C2CCC(=O)NC2=O)C3=O)ccc1B1O[C@H]2C[C@H]3C[C@H](C3(C)C)[C@@]2(CCOCC(=O)N2CCC(n3nc(-c4ccc(Oc5ccccc5)cc4)c4c(N)ncnc43)CC2)O1 (stereo partly drawn) [Example 18, 4-((3aR,4R,6R,7aS)-3a-(2-(2-(4-(4-amino-3-(4-phenoxyphenyl)-1H-pyrazolo[3,4-d]pyrimidin-1-yl)piperidin-1-yl)-2-oxoethoxy)ethyl)-5,5-dimethylhexahydro-4,6-methanobenzo[d][1,3,2]dioxaborol-2-yl)-N-(3-((2-(2,6-dioxopiperidin-3-yl)-1-oxoisoindolin-4-yl)oxy)propyl)-N,3-dimethylbenzamide] |
